A short description of this data set: xn = mol fraction of the nth substance listed. The note with it: 298.15 K, 101 kPa.

The term viscosity denotes the resistance of a fluid to flow. A low value points to easy flow.

Take `CCCCCC[n+]1ccn(C)c1.F[B-](F)(F)F` + CC(C)(C)O: the viscosity is reported as 171.8 mPa·s (x2 = 0); 131.4 mPa·s (x2 = 0.1); 115.6 mPa·s (x2 = 0.1449); 49.8 mPa·s (x2 = 0.4008); 34.1 mPa·s (x2 = 0.4992); 23.3 mPa·s (x2 = 0.6009). Moreover, the viscosity was found to be 18 mPa·s (x2 = 0.7007) and 11 mPa·s (x2 = 0.8983).
In turn, `CC(C)(C)O` + CCCCCC[n+]1ccn(C)c1.F[B-](F)(F)F had a viscosity (x1 = 1) of 4.444 mPa·s.
On to `CCCN` + CCCCCC[n+]1ccn(C)c1.F[B-](F)(F)F, for which the viscosity runs as follows: (x1 = 0.1949) 97.3 mPa·s; (x1 = 0.2959) 69.2 mPa·s; (x1 = 0.3803) 50.3 mPa·s; (x1 = 0.5991) 17.7 mPa·s; (x1 = 0.7005) 10.1 mPa·s; (x1 = 0.8066) 4.466 mPa·s. The compound also registered a viscosity (x1 = 1) of 0.358 mPa·s.

(Values after a compilation of properties of binary mixtures (doi:10.1016/j.molliq.2013.09.012).)
